From US20100267561A1, “HERBICIDAL PYRIDAZINONE DERIVATIVES” (priority 2007, published 2010)

Legend:
[1] = system: tropical (T.) spiderwort (Commelina benghalensis); assay: Test E pre-/postemergence plant response; format: in vivo; settings: scale 0 to 100
In short: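 Formulated in a non-phytotoxic solvent mixture containing surfactant, compound was applied to soil at planting or sprayed on emerged plants at the 1- to 4-leaf stage. Visual comparison with controls followed 14 to 21 days in the greenhouse; 0 = no effect, 100 = complete control.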

[2] = system: blackgrass (Alopecurus myosuroides); assay: Test A pre-/postemergence plant response; format: in vivo
In short: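 Ratings run 0–100 (100 = complete control), assigned visually against untreated controls roughly 10 days after treatment in a greenhouse. Compounds, formulated in non-phytotoxic solvent containing surfactant, were applied as a soil-directed preemergence spray and concurrently postemergence to one- to two-leaf plants 2–10 cm tall.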

[3] = Postemergence, 31 g ai/ha, 0 to 100 scale (0 no effect, 100 complete control)
[4] = Postemergence, 125 g ai/ha, 0 to 100 scale, 0 no effect, 100 complete control
[5] = Preemergence, 31 g ai/ha, 0 to 100 scale, 0 is no effect, 100 is complete control
[6] = Preemergence, 125 g ai/ha, 0 to 100 scale (0 no effect, 100 complete control)

| Structure (SMILES) | Plant response rating, Spiderwort, T. ([1]; 16 g ai/ha, Preemergence) | Plant response rating, Spiderwort, T. ([1]; 31 g ai/ha, Preemergence) | Plant response rating, Spiderwort, T. ([1]; 62 g ai/ha, Preemergence) | Plant response rating, Spiderwort, T. ([1]; Postemergence, 8 g ai/ha) | Plant response rating, Spiderwort, T. ([1]; Postemergence, 16 g ai/ha) | Plant response rating, Spiderwort, T. ([1]; Postemergence, 31 g ai/ha) | Plant response rating, Spiderwort, T. ([1]; Postemergence, 62 g ai/ha) | Plant response rating, Blackgrass [2, 3] | Plant response rating, Blackgrass [2, 4] | Plant response rating, Blackgrass [2, 5] | Plant response rating, Blackgrass [2, 6] |
| --- | --- | --- | --- | --- | --- | --- | --- | --- | --- | --- | --- |
| CCc1cc(-c2ccc(Cl)cc2)nn1-c1c(OC(=O)C(C)(C)C)cnn(C)c1=O [Compound 40] | 0 | 0 | 0 | 0 | 0 | 0 | 0 | – | – | – | – |
| COCc1cc(-c2ccc(Br)cc2)nn1-c1c(O)cnn(C)c1=O [Compound 68] | – | – | – | – | – | – | – | 0 | 80 | 0 | 50 |
| Cc1cc(-c2ccc(Cl)cc2)nn1-c1c(OC(=S)N(C)C)cnn(C)c1=O [Compound 69] | – | – | – | – | – | – | – | 10 | 60 | 20 | 40 |
| Cc1nn(C)c(=O)c(-n2nc(-c3ccc(C(F)(F)F)cc3)cc2C)c1O [Compound 75, 5-hydroxy-2,6-dimethyl-4-[5-methyl-3-[4-(trifluoromethyl)phenyl]-1H-pyrazol-1-yl]-3(2H)-pyridazinone] | – | – | – | – | – | – | – | 40 | 90 | 40 | 80 |
| Cc1cc(-c2ccc(Br)cc2)nn1-c1c(O)cn[nH]c1=O [Compound 78, 4-[3-(4-bromophenyl)-5-methyl-1H-pyrazol-1-yl]-5-hydroxy-3(2H)-pyridazinone] | – | – | – | – | – | – | – | 90 | 100 | 0 | 100 |
| Cc1cc(-c2ccc(Br)cc2)nn1-c1c(OC(=O)C2CC2)cnn(C(=O)C2CC2)c1=O [Compound 80, 5-[3-(4-bromophenyl)-5-methyl-1H-pyrazol-1-yl]-1-(cyclopropylcarbonyl)-1,6-dihydro-6-oxo-4-pyridazinyl cyclopropanecarboxylate] | – | – | – | – | – | – | – | 30 | 100 | 70 | 100 |
| Cc1nn(C)c(=O)c(-n2nc(-c3ccc(Br)cc3)cc2C)c1O [Compound 81] | – | – | – | – | – | – | – | 100 | 100 | 70 | 100 |
